Measured values: patent US9899125B2, “Medium- or high-voltage electrical appliance having a low environmental impact and hybrid insulation” (Alstom Technology Ltd., priority 2012, dated 2018)

Key:
[1] = prior art statement; cited from earlier work
[2] = Toxicity: LC50 (lethal concentration, 50%); type: in vivo; conditions: pure heptafluoroisobutyronitrile
[3] = Toxicity for humans and animals (statement)
From the text: Currently, the most widely-used gas in that type of equipment is sulfur hexafluoride (SF6). That gas presents dielectric strength that is relatively high, good thermal conductivity, and low dielectric losses. It is chemically inert, non-toxic for humans and animals and, after being dissociated by an electric arc, it recombines quickly and almost completely. In addition, it is non-flammable and its price is still moderate.

## FS(F)(F)(F)(F)F [SF6, sulfur hexafluoride]
[1]
  toxicity for humans and animals: non-toxic

## N#CC(F)(C(F)(F)F)C(F)(F)F [Heptafluoroisobutyronitrile, 2,3,3,3-tetrafluoro-2-trifluoromethyl propanenitrile]
[2]
  LC50 (lethal concentration, 50%): greater than 15000 ppm
[3]
  toxicity for humans: no specific toxicity
